Patent publication US6399649B1, “Compositions and methods for the treatment of chronic lymphocytic leukemia” (Boston Medical Center Corporation, priority 1998, dated 2002)

Experiments:
[1] = system: CLL cells; conditions: cited from earlier work
[2] = system: IL-2 cultured WMC (>90% CD3+ T cells); assay: Hoechst 33342 apoptosis assay, IL-2 cultured WMC; type: cell-based, human; conditions: 72 hours, comparable treatments
[3] = system: magnetic bead purified CD19+B cells; assay: Hoechst 33342 apoptosis assay, CD19+ B cells; type: cell-based, human; conditions: 72 hours
Procedure: (§1) Hoechst 33342 was dissolved in water and frozen at 33 mg/mL at −20° C. One million cells/well were incubated in duplicate or triplicate in 48 well tissue culture plates (Costar, Cambridge, Mass.) with or without drug treatment for […] in 1 mL of culture media. Cells were transferred to 12×75 mm polystyrene Falcon® 2054 FACS tubes (Becton Dickinson Labware, Lincoln Park, N.J.) and incubated for ten minutes at 37° C. with Hoechst 33342 at a final concentration of […]. 23 Cells were stored on ice until analysis on a FACS Vantage flow cytometer (Becton Dickinson, San Jose, Calif.). Hoechst 33342 dye fluorescence was excited with a UV laser and detected using a 450 bandpass filter; Data was analyzed using Cellquest software (Becton Dickinson, San Jose, Calif.).
This example describes the effect of PDE4 inhibition on normal B and T cells. […] Specifically, one million WMC were cultured with the indicated concentration of rolipram with or without the addition of 40 uMol/L forskolin for 72 hours in the presence of 2 units/mL IL-2. Apoptosis was determined by Hoechst 33342 flow cytometry. […] In contrast, magnetic bead purified CD19+B cells were sensitive to rolipram, although the increment in apoptosis observed was superimposed on a high basal apoptosis rate that has previously been reported in cultured human B cells. Given that crosslinking of cell surface immunoglobulin on resting B cells has been reported to reduce basal and forskolin-induced apoptosis in culture, we also stimulated CD19+ cells with a polyclonal Fab′2 anti-IgM/IgG reagent 30 minutes prior to the addition of the phosphodiesterase inhibitor.

[4] = system: CLL cells; assay: Hoechst 33342 apoptosis assay, CLL cells; type: cell-based, human; conditions: for percentage of apoptotic cells: three days
Procedure: as §1
As a more quantitative analysis of CLL apoptosis, we utilized a flow cytometry method in which apoptotic cells are distinguished both by their reduced size (FSC) and their increased uptake of the lipophilic UV fluorescent dye Hoechst 33342 (FL-4) when the intact, heterogeneous cell population is incubated with a low concentration of the dye (0.25 ug/mL) for 10 minutes at 37° C. Specifically, cells were cultured for 72 hours in media (1), 1uMol/L rolipram (2), 40 uMol/L forskolin (3) or a combination of the two drugs (FIG. 6). The abcissa reflects forward light scatter and the ordinate Hoechst 33342 fluorescence. Apoptotic cells are characterized by reduced forward light scatter and increased Hoechst 33342 fluorescence. Previous reports of cAMP induced lymphoid apoptosis have noted that this form of programmed cell death may take 48 to 72 hours to develop maximally. […] CLL cells were cultured for 72 hours in one mL of media with the indicated concentration of rolipram with (black bars) or without (stippled bars) the addition of 40 uMol/L forskolin.

[5] = system: Bal-17 cells; assay: cAMP assay (RIA) in Bal-17 cells; type: cell-based, murine; conditions: basal and forskolin-stimulated (data not shown)
[6] = target: PDE1 enzymes; conditions: cited from earlier work
[7] = system: CLL cells; assay: cAMP assay (RIA) in CLL cells; type: cell-based, human; conditions: 30 uMol/L with forskolin; two hours
Procedure: One million cells in 1 mL were treated for two hours with or without drugs. 0.8 mL of cells were pelleted by spinning at 4,000 rpm (RCF=1,310) in microcentrifuge tube. After discarding 0.7 mL, 400 uL of ethanol was added, vortexed and left on ice for five minutes. Particulate cell debris was removed by centrifugation at 14,000 rpm (RCF=16,000). The supernatant was stored at −20° C. until the day of assay, at which time it was dried in a Speedivac (Savant, Farmingdale, N.Y.) to a volume of 50 uL. After ten-fold dilution in 10 mMol/L Tris pH 8.0, 1 mMol/L EDTA, the cAMP sample was analyzed for cAMP concentration using a cAMP RIA kit (NEN, Boston, Mass.) according to the manufacturer's instructions using the nonacetylated protocol.
In this example, it was determined what role type 1 and type 4 PDE activity might play in the catabolism of cyclic nucleotides in CLL cells. cAMP levels were measured after culturing leukemic cells with varying concentrations of PDE-isoform specific inhibitors, either alone or in conjunction with an activator of adenylate cyclase, the diterpene forskolin. Specifically, one million freshly isolated cells were incubated with the indicated drugs for two hours prior to analysis of cAMP in cell lysates using a radioimmunoassay. The results are shown in FIG. 4 and the data are the mean of three individually assayed culture wells.

[8] = Pt. 3, Rai IV, Drug Res. Ch, CH, basal 38, 10 uMol/L rolipram, 40 uMol/L forskolin or 100 uMol/L dbcAMP
[9] = Pt. 6, Rai IV, Drug Res. Ch, basal 17 ± 4, 10 uMol/L rolipram, 40 uMol/L forskolin or 100 uMol/L dbcAMP
[10] = Pt. 7, Rai II, Drug Res. Ch, basal 13 ± 2, 10 uMol/L rolipram, 40 uMol/L forskolin or 100 uMol/L dbcAMP
[11] = Pt. 9, Rai IV, Drug Res. Ch, Cy, Fl, basal 4 ± 0, 10 uMol/L rolipram, 40 uMol/L forskolin or 100 uMol/L dbcAMP
[12] = Pt. 11, Rai 0, basal 24 ± 4, 10 uMol/L rolipram, 40 uMol/L forskolin or 100 uMol/L dbcAMP
[13] = Pt. 14 (significant population of cells with prolymphocyte morphology), Rai I, basal 13 ± 0, 10 uMol/L rolipram, 40 uMol/L forskolin or 100 uMol/L dbcAMP

Compound: Cn1c(=O)c2[nH]cnc2n(C)c1=O [Theophylline]
- apoptosis in CLL cells [1]: induces apoptosis

Compound: CCCC(=O)Nc1ncnc2c1ncn2[C@@H]1O[C@@H]2COP(=O)(O)O[C@H]2[C@H]1OC(=O)CCC [dbcAMP, dibutyryl cAMP]
- percentage of apoptotic cells relative to control cells [2]: did not significantly increase
- percentage of apoptotic cells relative to control cells ([3]; anti-Ig stimulated B cells, comparable treatments): did not significantly increase
- percentage of apoptotic cells relative to control cells ([3]; resting B cells, 10 uMol/L rolipram, 40 uMol/L forskolin, dbcAMP greater than or equal to 30 mMol/L): increased significantly
- percentage of apoptotic cells relative to control cells ([4]; CLL cells, 72 hours, 10 uMol/L rolipram, 40 uMol/L forskolin, dbcAMP greater than or equal to 30 mMol/L): increased significantly
- percentage of apoptotic cells [4, 8]: 71 ± 3%
- percentage of apoptotic cells [4, 9]: 39 ± 4%
- percentage of apoptotic cells [4, 10]: 32 ± 4%
- percentage of apoptotic cells [4, 11]: 46 ± 1%
- percentage of apoptotic cells [4, 12]: 39 ± 2%
- percentage of apoptotic cells ([4]; Pt. 13, Rai 0, basal 2 ± 0, 10 uMol/L rolipram, 40 uMol/L forskolin or 100 uMol/L dbcAMP): 23 ± 6%
- percentage of apoptotic cells [4, 13]: 22 ± 0%

Compound: C=C[C@@]1(C)CC(=O)[C@]2(O)[C@@]3(C)[C@@H](O)CCC(C)(C)[C@@H]3[C@H](O)[C@H](OC(C)=O)[C@@]2(C)O1 [forskolin]
- percentage of apoptotic cells ([4]; Pt. 2, Rai IV, Drug Res. Ch, Cy, basal 18 ± 2, 10 uMol/L rolipram, 40 uMol/L forskolin or 100 uMol/L dbcAMP): 46%
- percentage of apoptotic cells [4, 8]: 59 ± 0%
- percentage of apoptotic cells [4, 9]: 30 ± 4%
- percentage of apoptotic cells [4, 10]: 32 ± 0%
- percentage of apoptotic cells ([4]; Pt. 8, Rai 0, basal 5, 10 uMol/L rolipram, 40 uMol/L forskolin): 22%
- percentage of apoptotic cells [4, 11]: 17 ± 4%
- percentage of apoptotic cells ([4]; Pt. 10, Rai I, basal 11, 10 uMol/L rolipram, 40 uMol/L forskolin or 100 uMol/L dbcAMP): 26 ± 4%
- percentage of apoptotic cells [4, 12]: 40 ± 3%
- percentage of apoptotic cells ([4]; Pt. 12, Rai IV, Drug Res. Ch, Fl, 2C, basal 0 ± 4, 10 uMol/L rolipram, 40 uMol/L forskolin or 100 uMol/L dbcAMP): 43 ± 1%
- percentage of apoptotic cells [4, 13]: 19 ± 3%

Compound: CCOC(=O)C1=C[C@]2(CC)CCCN3CCc4c(n1c1ccccc41)[C@@H]32 [vinpocetine]
- cAMP levels in Bal-17 cells [5]: reduced both basal and forskolin-stimulated cAMP levels
- IC50 [6]: 21 µM
- CLL cell cAMP [7]: not augmented above levels induced by forskolin alone
- CLL cell apoptosis ([4]; 10 or 30 uMol/L): underwent apoptosis
- time of peak apoptosis ([4]; CLL cells (data not shown)): ≤ 24 h
